Measurements: paper PMC11091072, “Targeting bacterial nickel transport with aspergillomarasmine A suppresses virulence-associated Ni-dependent enzymes” (Nature Communications, 2024)
Several values for one entry are separate records, joined by “and”; a condition that tells them apart may be missing. Identical values can stand only once. Entries after “also recorded” stand apart in the source; their conditions may differ. Like-named read-outs stand apart in the source and are kept apart here.

Tests used:
Hyd-3 = assay: [NiFe] hydrogenase zymography; assay type: cell-based, Escherichia coli BW25113; settings: 150 µM, E. coli, 100% H2
Protocol: As described for whole-cell hydrogenase assays, E. coli BW25113 cultures (2 mL) in eight-well cell culture plates were grown under anaerobic conditions. The cells were harvested by centrifugation, resuspended in PBS, and lysed by sonication. Cell debris was removed by centrifugation (21,000 × g, 5 min), and Triton X-100 was added to a final concentration of 1%.
[NiFe] hydrogenase zymograms were
performed using E. coli grown in LB-glucose supplemented with 0.5 µM NiCl2 for 24h at 37 °C under anaerobic conditions. The E. coli
Triton X-100 (5% v/v) solubilized membranes were
mg/mL benzyl viologen and 1 mg/mL tetrazolium chloride under 100% H2 gas.

S. aureus USA300 = assay: Galleria mellonella infection model; assay type: in vivo; settings: for survival curve event per larva: S. aureus + 7.5 μg/mL Zn-AMA, one cell per larva
Protocol: (§1) The cell suspensions were mixed at an equal volume of 300 μg/mL Zn-AMA before injection. The larvae were each injected with 10 μL ([…]) of bacterial suspension with and without Zn-AMA or PBS. Ten larvae were used per group, incubated at 30 °C, and monitored on a 24-hour cycle. Fresh G. mellonella larvae were obtained from The Dragon Lair (www.thedragonlair.ca).

[1] = test system: S. aureus USA300 ureC::tn; assay: Galleria mellonella infection model; assay type: in vivo; settings: for survival curve event per larva: S. aureus ureC::Tn + 7.5 μg/mL Zn-AMA, one cell per larva
Protocol: as §1

K. pneumoniae ATCC 33495 = assay: Galleria mellonella infection model; assay type: in vivo; settings: for survival curve event per larva: K. pneumoniae + 7.5 μg/mL Zn-AMA, one cell per larva
Protocol: as §1

[2] = test system: K. pneumoniae urease activity (Ni2+ uptake); assay: Competition of Zn-AMA with Ni-(L-His)2 (urease-dependent pH); assay type: cell-based, Klebsiella pneumoniae
S. aureus biofilm = assay: Polystyrene microtiter biofilm assay (crystal violet); assay type: cell-based, Staphylococcus aureus USA300; settings: artificial urine or M9
Protocol: (§2) Biofilm assays to assess the effect of Zn-AMA were adapted from a previously described method. Overnight cultures of K. pneumoniae or S. aureus USA300 were diluted in sterile saline (NaCl, 0.9% w/v) to an OD600 of 0.1 and diluted 1/200 in either M9-Cas, or artificial urine. Two-fold dilutions of Zn-AMA were added to the cells in a 96-well round-bottom microtiter plate, and the cells were grown at 37 °C for 18 hours in a static incubator. Following incubation, the microtiter plates were agitated on an orbital shaker (300 rpm, 2 min), the planktonic cells were transferred to a fresh plate, and their OD600 was quantified. The biofilms were washed three times with deionized water, air-dried, and stained with 0.1% crystal violet for 15 min. Excess crystal violet was removed, the plates were washed with deionized water three times, and they were air-dried for 1 hour. The crystal violet-stained biofilms were solubilized in 33% acetic acid (100 μL) for 5 min, and the absorbance (600 nm) was measured. Experiments were performed in four replicates, and absorbance measurements were performed in a BioTek Synergy H1 plate reader.

K. pneumoniae biofilm = assay: as above; assay type: cell-based, Klebsiella pneumoniae
Protocol: as §2, with “Following incubation, the microtiter plates were agitated on an orbital shaker (300 rpm, 2 min), the planktonic cells were transferred to a fresh plate, and their OD600 was quantified.” left out, “The crystal violet-stained biofilms were solubilized in 33% acetic acid (100 μL) for 5 min, and the absorbance (600 nm) was measured.” left out

NikA = assay type: binding, Klebsiella pneumoniae; settings: 100 μM
AMA affinity for Zn2+ = assay type: binding; settings: PAR-based competition assay, authors' reply to reviewer; read-out: Kd for Zn (typical drift)
[3] = Competitive ITC of AMA, Zn2+ and Ni2+ (Ni2+ affinity of AMA); assay type: binding; settings: competition ITC, 25 mM Tris-HCl, 150 mM NaCl, pH 7.5, 37 °C; estimated; read-out: KD for Ni^2+
[4] = read-out: KD for Zn^2+; cited from earlier work

For `N[C@@H](CN[C@@H](CN[C@@H](CC(=O)O)C(=O)O)C(=O)O)C(=O)O.[Zn+2]` [Zn-AMA], the “Hyd-3 activity by zymography” value (Hyd-3) was “Suppression of Hyd-3 activity”, the “survival curve event per larva” value (S. aureus USA300; day 1 post infection) was 1 and the “survival curve event per larva” value (S. aureus USA300; day 2 post infection) was 1. For the same compound, the “survival curve event per larva” value (S. aureus USA300; day 3 post infection) was 1, the “survival curve event per larva” value (S. aureus USA300; day 5 post infection) was 1 and the “survival curve event per larva” value (S. aureus USA300; day 7 post infection) was 0. The “G. mellonella larvae survival” value (S. aureus USA300; S. aureus USA300 infection, 7.5 mg/kg, seven days) was “significantly enhance the survival; also recorded: effective monotherapy”, the “G. mellonella larvae survival” value ([1]; S. aureus USA300 ureC::tn infection, 7.5 mg/kg) was “no effect on the survival; also recorded: no significant survival benefit” and the “survival curve event per larva” value ([1]; day 1 post infection) was 1. For the same compound, the “survival curve event per larva” value ([1]; day 2 post infection) was 1, the “survival curve event per larva” value ([1]; day 3 post infection) was 1 and the “survival curve event per larva” value ([1]; day 5 post infection) was 1. The “survival curve event per larva” value (K. pneumoniae ATCC 33495; day 1 post infection) was 1, the “survival curve event per larva” value (K. pneumoniae ATCC 33495; day 2 post infection) was 1 and the “survival curve event per larva” value (K. pneumoniae ATCC 33495; day 3 post infection) was 1. The “survival curve event per larva” value (K. pneumoniae ATCC 33495; day 5 post infection) was 1, the “G. mellonella larvae survival” value (K. pneumoniae ATCC 33495; K. pneumoniae infection, 7.5 mg/kg, seven days) was “significantly enhance the survival; also recorded: effective monotherapy” and the “pH of culture (Zn-AMA v.s. L-His)” value ([2]; Zn-AMA 6.25 μM + L-His 3.12 μM) was 7.4 and 7.43. For the same compound, the “pH of culture (Zn-AMA v.s. L-His)” value ([2]; Zn-AMA 6.25 μM + L-His 6.25 μM) was 7.74 and 7.71, the “pH of culture (Zn-AMA v.s. L-His)” value ([2]; Zn-AMA 6.25 μM + L-His 12.5 μM) was 7.97 and 8.09 and the “pH of culture (Zn-AMA v.s. L-His)” value ([2]; Zn-AMA 6.25 μM, L-His 0 μM) was 6.53 and 6.52. For the same compound, the “pH of culture (Zn-AMA v.s. L-His)” value ([2]; Zn-AMA 25 μM + L-His 3.12 μM) was 6.81 and 6.82, the “pH of culture (Zn-AMA v.s. L-His)” value ([2]; Zn-AMA 25 μM + L-His 6.25 μM) was 7.1 and 7.22 and the “pH of culture (Zn-AMA v.s. L-His)” value ([2]; Zn-AMA 25 μM + L-His 12.5 μM) was 7.41 and 7.51. For the same compound, the “pH of culture (Zn-AMA v.s. L-His)” value ([2]; Zn-AMA 25 μM, L-His 0 μM) was 6.38 and 6.37, the “effect on biofilm production” value (S. aureus biofilm) was “anti-biofilm activity was not observed” and the “Biofilm (A595), crystal violet” value (K. pneumoniae biofilm; 1.56 μM, artificial urine) was 0.659 and 0.666 and 0.436 and 0.533. The “Planktonic (A595)” value (K. pneumoniae biofilm; 1.56 μM, artificial urine) was 0.141 and 0.142 and 0.148 and 0.16, the “Biofilm (A595), crystal violet” value (K. pneumoniae biofilm; 3.12 μM, artificial urine) was 0.633 and 0.585 and 0.45 and 0.471 and the “Planktonic (A595)” value (K. pneumoniae biofilm; 3.12 μM, artificial urine) was 0.147 and 0.142 and 0.13 and 0.155. The “Planktonic (A595)” value (K. pneumoniae biofilm; 6.2 μM, artificial urine) was 0.194 and 0.11 and 0.126 and 0.129, the “Planktonic (A595)” value (K. pneumoniae biofilm; 12.5 μM, artificial urine) was 0.177 and 0.124 and 0.113 and 0.167 and the “Planktonic (A595)” value (K. pneumoniae biofilm; 25 μM, artificial urine) was 0.165 and 0.136 and 0.151 and 0.152. The “Planktonic (A595)” value (K. pneumoniae biofilm; 50 μM, artificial urine) was 0.165 and 0.152 and 0.157 and 0.154, the “Planktonic (A595)” value (K. pneumoniae biofilm; 100 μM, artificial urine) was 0.171 and 0.148 and 0.158 and 0.166 and the “Planktonic (A595)” value (K. pneumoniae biofilm; 200 μM, artificial urine) was 0.167 and 0.176 and 0.175 and 0.166. The “effect on biofilm production” value (K. pneumoniae biofilm; M9 minimal medium) was “biofilms were unperturbed”, the “effect on biofilm production” value (K. pneumoniae biofilm; artificial urine) was “completely suppress biofilm production” and the “effect on stability of recombinant NikA” value (NikA) was “increase NikA’s stability”.

In the case of `N[C@@H](CN[C@@H](CN[C@@H](CC(=O)O)C(=O)O)C(=O)O)C(=O)O` [AMA, aspergillomarasmine A], the Kd (AMA affinity for Zn2+) is given as 0.1 to 0.2 nM, the Kd [3] is given as ~0.08 nM and 0.08 nM and the Kd [4] is given as 0.2 nM.
